Here are results for 19 compounds from PubChem BioAssay (NCI).

Test systems include UACC-257 melanoma; K-562 leukemia; RPMI-8226 leukemia; SF-539 CNS; BT-549 breast; M14 melanoma; OVCAR-8 ovarian; HCC-2998 colon; MDA-MB-435; NCI-H226 lung.
Common to all, as to experiment: NCI anticancer screen, dose series, 48 h

SMILES strings stand for the structures.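 The compound was tested at five concentrations on cells cultured in 96-well plates, with a 48-hour exposure period. Abbreviation: GI50, concentration required for 50% inhibition of growth. TGI: concentration producing complete growth inhibition.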

Regarding `COc1ccc(/C=C\c2cc(OC)c(OC)c(OC)c2)cc1OCC(=O)Nc1nc2ccccc2s1`, the GI50 with UACC-257 melanoma was 11 µM; in the assay on K-562 leukemia, 0.0423 µM; in the assay on RPMI-8226 leukemia, 0.683 µM; in the assay with SF-539 CNS, 0.187 µM; in the assay on BT-549 breast, 0.303 µM; with M14 melanoma it was 0.0527 µM. For the same compound, the figures for the GI50 in the assay on OVCAR-8 ovarian and with HCC-2998 colon were 0.257 µM and 0.447 µM, respectively. In addition, the TGI in the assay on UACC-257 melanoma, in the assay on K-562 leukemia, with RPMI-8226 leukemia, in the assay with SF-539 CNS, with BT-549 breast and with M14 melanoma was greater than 100 µM throughout. Besides, the TGI with OVCAR-8 ovarian and in the assay with HCC-2998 colon was greater than 100 µM each time.

With `COc1cc(-c2nc(-c3ccc(-c4nc5ccc(F)cc5[nH]4)cc3)no2)cc(OC)c1OC`, the GI50 in the assay with MDA-MB-435 is 2.73 µM; with UACC-257 melanoma, 3.7 µM; in the assay on RPMI-8226 leukemia, 1.94 µM; in the assay on SF-539 CNS, 3.38 µM; in the assay with BT-549 breast, 3.49 µM; in the assay with M14 melanoma it was 3.23 µM. For the same compound, the figures for the GI50 in the assay on OVCAR-8 ovarian, with NCI-H226 lung and in the assay with HCC-2998 colon were 2.36 µM, 2.72 µM and 6.13 µM, respectively. In addition, the TGI turned out to be 10.7 µM with MDA-MB-435; 14.8 µM in the assay on UACC-257 melanoma; 5.35 µM in the assay on RPMI-8226 leukemia; 18.7 µM with SF-539 CNS; 11.1 µM with BT-549 breast; 10.5 µM with M14 melanoma. For the same compound, the TGI was determined as 7.61 µM with OVCAR-8 ovarian, 10.7 µM with NCI-H226 lung and 40.4 µM with HCC-2998 colon.

Turning to `CCOc1cc2c(=O)oc3c(OC)ccc4ccc(c1OC)c2c43`, the TGI is greater than 100 µM in the assay on MDA-MB-435; greater than 100 µM with UACC-257 melanoma; greater than 100 µM in the assay on K-562 leukemia; greater than 100 µM with SF-539 CNS; greater than 100 µM with M14 melanoma; 79.3 µM in the assay on OVCAR-8 ovarian. The TGI with NCI-H226 lung and with HCC-2998 colon was greater than 100 µM in each case.

Take `COc1cc(C(=O)O/N=C(\N)Cc2cccc3ccccc23)cc(OC)c1OC`: the GI50 is 2.4 µM in the assay with MDA-MB-435; 15.2 µM in the assay on UACC-257 melanoma; 3.02 µM in the assay with RPMI-8226 leukemia; 2.97 µM with SF-539 CNS; 14.6 µM in the assay with BT-549 breast; 11.5 µM in the assay with OVCAR-8 ovarian. For the same compound, the GI50 in the assay on NCI-H226 lung is 16.9 µM; in the assay on HCC-2998 colon it was 17.2 µM. The TGI with MDA-MB-435 is 6.42 µM; in the assay on UACC-257 melanoma it was 29.2 µM; in the assay with RPMI-8226 leukemia, 12.6 µM; with SF-539 CNS it was 10.4 µM; with BT-549 breast, 29.7 µM; in the assay with OVCAR-8 ovarian, 43.8 µM. The results for the TGI in the assay on NCI-H226 lung and in the assay on HCC-2998 colon were 42.5 µM and 34.3 µM, respectively.

Consider `O=C(Cc1csc2nc(-c3ccc(Br)cc3)cn12)N/N=C/c1ccc(Cl)cc1Cl`, for which the GI50 with MDA-MB-435 is 31.4 µM; in the assay with UACC-257 melanoma, 68.9 µM; with RPMI-8226 leukemia it was 80.2 µM; with SF-539 CNS, 27.2 µM; in the assay with BT-549 breast, 25.9 µM; with M14 melanoma, 32.9 µM. In addition, the results for the GI50 in the assay on OVCAR-8 ovarian, in the assay with NCI-H226 lung and with HCC-2998 colon were 18.6 µM, 31.8 µM and 20 µM, respectively. In addition, the TGI with MDA-MB-435 is greater than 100 µM; in the assay with UACC-257 melanoma it was greater than 100 µM; in the assay with RPMI-8226 leukemia it was greater than 100 µM; in the assay with SF-539 CNS it was 63.8 µM; in the assay on BT-549 breast, 76.9 µM; in the assay on M14 melanoma, greater than 100 µM. In addition, the values for the TGI in the assay on OVCAR-8 ovarian, in the assay with NCI-H226 lung and with HCC-2998 colon were 50.3 µM, 92.2 µM and 44.8 µM, respectively.

With `NC(CCc1ncc(-c2ccccc2)s1)C(=O)O` (stereo unspecified), the TGI in the assay on UACC-257 melanoma, with K-562 leukemia, in the assay with RPMI-8226 leukemia, in the assay with SF-539 CNS, in the assay with M14 melanoma and in the assay on OVCAR-8 ovarian was greater than 100 µM throughout. For the same compound, the TGI in the assay on NCI-H226 lung and in the assay on HCC-2998 colon was greater than 100 µM in each case.

Turning to `CN(C)c1ccc(Nc2c3ccccc3nc3cc(NC(=O)CCN4CCCC4)ccc23)cc1`, the GI50 in the assay on MDA-MB-435 is 1.22 µM; with UACC-257 melanoma, 1.65 µM; in the assay on RPMI-8226 leukemia, 0.185 µM; in the assay on SF-539 CNS, 0.65 µM; in the assay on BT-549 breast, 1.3 µM; in the assay with M14 melanoma, 0.692 µM. The GI50 in the assay with OVCAR-8 ovarian was 0.533 µM; with NCI-H226 lung, 0.577 µM; in the assay on HCC-2998 colon it was 0.627 µM. Moreover, the TGI with MDA-MB-435 was 2.49 µM; in the assay with UACC-257 melanoma it was 3.51 µM; in the assay with RPMI-8226 leukemia, 0.711 µM; in the assay on SF-539 CNS, 1.92 µM; in the assay with BT-549 breast, 2.73 µM; with M14 melanoma it was 2 µM. In addition, the figures for the TGI in the assay with OVCAR-8 ovarian, in the assay on NCI-H226 lung and in the assay on HCC-2998 colon were 2.96 µM, 2.59 µM and 2.26 µM, respectively.

`C=C1CCC2C(C)(CO)C(O)CCC2(C)C1C/C=C1/CCOC1=O` (stereo unspecified): the TGI with UACC-257 melanoma, in the assay with K-562 leukemia, in the assay on RPMI-8226 leukemia, in the assay with SF-539 CNS, in the assay with M14 melanoma and with OVCAR-8 ovarian was greater than 100 µM throughout. Moreover, the TGI with NCI-H226 lung and with HCC-2998 colon was greater than 100 µM throughout.

As for `CCOC(OCC)C(CC)[Se]c1ccccc1` (stereo unspecified), the TGI is greater than 100 µM with UACC-257 melanoma; greater than 100 µM in the assay with K-562 leukemia; 57.5 µM with RPMI-8226 leukemia; greater than 100 µM in the assay with SF-539 CNS; 93.7 µM in the assay on M14 melanoma; greater than 100 µM with OVCAR-8 ovarian. Besides, the TGI with NCI-H226 lung and in the assay on HCC-2998 colon was greater than 100 µM in each case.

As for `O=C(/C=C/c1ccccc1O)c1cccc2ccccc12`, the TGI in the assay on UACC-257 melanoma is greater than 100 µM; with K-562 leukemia, greater than 100 µM; in the assay with RPMI-8226 leukemia, 76.6 µM; in the assay on SF-539 CNS it was greater than 100 µM; in the assay with M14 melanoma it was greater than 100 µM; in the assay with OVCAR-8 ovarian, greater than 100 µM. In addition, the TGI with NCI-H226 lung and with HCC-2998 colon was greater than 100 µM throughout.

Consider `CN(C)C(=S)/N=c1\ss/c(=N\C(=S)N(C)C)n1Cc1ccco1`, for which the TGI with UACC-257 melanoma, in the assay with K-562 leukemia, in the assay with RPMI-8226 leukemia, in the assay with SF-539 CNS, with M14 melanoma and in the assay with OVCAR-8 ovarian was greater than 100 µM each time. Moreover, the TGI with NCI-H226 lung and in the assay on HCC-2998 colon was greater than 100 µM throughout.

For the compound `CC(=O)OCCOCNC(=S)N/N=C(\C)c1cccs1`, the TGI with UACC-257 melanoma, in the assay with K-562 leukemia, in the assay with RPMI-8226 leukemia, in the assay with SF-539 CNS, with M14 melanoma and in the assay on OVCAR-8 ovarian was greater than 100 µM throughout. For the same compound, the TGI in the assay with NCI-H226 lung and with HCC-2998 colon was greater than 100 µM in each case.

For the compound `CN(C(=O)C12C3C4C1C1C2C3C41C(O)C(C)(C)C)C(C)(C)C` (stereo unspecified), the TGI with UACC-257 melanoma, with K-562 leukemia, in the assay on RPMI-8226 leukemia, in the assay on SF-539 CNS, in the assay with M14 melanoma and in the assay with OVCAR-8 ovarian was greater than 100 µM throughout. The TGI in the assay with NCI-H226 lung and in the assay with HCC-2998 colon was greater than 100 µM throughout.

For the compound `Cn1nc2ccc3nccc(NCCNCCO)c3c2n1`, the TGI is 76.9 µM with UACC-257 melanoma; greater than 100 µM with K-562 leukemia; greater than 100 µM in the assay with RPMI-8226 leukemia; greater than 100 µM in the assay with SF-539 CNS; greater than 100 µM with M14 melanoma; greater than 100 µM in the assay with OVCAR-8 ovarian. Moreover, the TGI with NCI-H226 lung was 85.8 µM; in the assay with HCC-2998 colon, greater than 100 µM.

For `OCC(O)COc1c(Cl)cc(Cl)cc1Cl` (stereo unspecified), the TGI with UACC-257 melanoma is greater than 100 µM; with K-562 leukemia it was greater than 66.1 µM; in the assay on RPMI-8226 leukemia, greater than 64.6 µM; in the assay with SF-539 CNS, greater than 100 µM; in the assay with M14 melanoma it was greater than 100 µM; with OVCAR-8 ovarian, greater than 100 µM. Further, the TGI with NCI-H226 lung and in the assay on HCC-2998 colon was greater than 100 µM each time.

`O=C(O)c1cn(C2CC2)c2cc(N3CCNCC3)c(F)cc2c1=O`: the GI50 in the assay on MDA-MB-435, with UACC-257 melanoma, in the assay with RPMI-8226 leukemia, with BT-549 breast, with M14 melanoma and in the assay on OVCAR-8 ovarian was greater than 100 µM each time. Moreover, the GI50 in the assay with NCI-H226 lung was greater than 100 µM; in the assay on HCC-2998 colon, 98 µM. The TGI in the assay on MDA-MB-435, in the assay with UACC-257 melanoma, in the assay with RPMI-8226 leukemia, in the assay with BT-549 breast, in the assay with M14 melanoma and in the assay on OVCAR-8 ovarian was greater than 100 µM in each case. Also, the TGI in the assay on NCI-H226 lung and in the assay on HCC-2998 colon was greater than 100 µM throughout.

Regarding `CCOc1ccc(NCC2CC/C(=C\c3ccc(Cl)cc3)C2=O)cc1` (stereo unspecified), the TGI is greater than 56.1 µM with UACC-257 melanoma; 34.9 µM with K-562 leukemia; 10.2 µM with RPMI-8226 leukemia; greater than 57 µM in the assay on SF-539 CNS; 50.6 µM with M14 melanoma; greater than 52.8 µM with OVCAR-8 ovarian. For the same compound, the results for the TGI with NCI-H226 lung and in the assay on HCC-2998 colon were greater than 100 µM and 18 µM, respectively.

Regarding `O=C1CCCC(O)=C1SC1=C(O)CCCC1=O`, the TGI with UACC-257 melanoma, in the assay on K-562 leukemia, with RPMI-8226 leukemia, with SF-539 CNS, with M14 melanoma and in the assay with OVCAR-8 ovarian was greater than 100 µM throughout. Also, the TGI in the assay on NCI-H226 lung and in the assay on HCC-2998 colon was greater than 100 µM each time.

Consider `CCOC(=O)C(=O)Nc1ccccc1OCC`, for which the TGI in the assay with UACC-257 melanoma, in the assay with K-562 leukemia, in the assay on RPMI-8226 leukemia, in the assay on SF-539 CNS, in the assay on M14 melanoma and in the assay with OVCAR-8 ovarian was greater than 100 µM in each case. For the same compound, the TGI in the assay on NCI-H226 lung and with HCC-2998 colon was greater than 100 µM throughout.
